What was measured:
porcine bronchi = assay: Toxicity and histopathological evaluation after injections in all lobes of the lungs of porcine subjects; assay type: in vivo
Experimental: Four porcine subjects were treated with two different drugs to test pharmacokinetics and toxicity in porcine bronchi. Dexamethasone was administered to 2 animals at low (1 mg/mL), medium (2 mg/mL), and high (4 mg/mL) doses. The other drug, α-1-antitrypsin (Alpha-1-antitrypsin or A1AT), was administered to the remaining animals at low (2 mg/mL), medium (10 mg/mL), and high (50 mg/mL) doses. The drugs were administered via injections in all lobes of the lungs at the varying dosages.
All animals survived until a scheduled termination and were sacrificed on day 30. All four animals had limited necropsies completed.
This group was comprised of 2 animals. Both animals received low dose treatment in the right upper and middle lung lobes, and mid dose treatment in the right lower lung lobe. One subject received high dose treatment in the left upper lung lobe. Another subject received high dose treatment in the left upper and lower lung lobes.
This group was comprised of 2 animals. Both animals received low dose treatment in the right upper and middle lung lobes, and mid dose treatment in the right lower lung lobe. One subject received high dose treatment in the left lower lung lobe, and the other received high dose treatment in the left upper lung lobe.

[1] = oral administration, cited from earlier work
bronchial walls = assay: Bronchial wall injections in a porcine subject: bronchoconstriction challenge and relief; assay type: in vivo; settings: for Effect of injection into methacholine-narrowed segments (bronchodilation): 0.1 to 0.5 mL injected into narrowed bronchial segments
Experimental: In another animal study, one porcine subject was utilized. The animal received multiple injections in the bronchial wall of sub-selected bronchi. First injections of methacholine in concentrations of 0.3 or 3.0 mg/mL and volumes of 0.1 to 0.5 mL were made into bronchial walls throughout the airway tree.

[2] = 0.3 or 3.0 mg/mL, 0.1 to 0.5 mL into bronchial walls

Row | Compound | Findings in bronchial or bronchiolar walls (porcine bronchi; pig, in vivo) | Gross or histopathological changes in the lung related to toxic effects (porcine bronchi; pig, in vivo) | Inflammatory cell infiltrates in lung sections (considered a background change) (porcine bronchi; pig, in vivo) | Effect of injection into methacholine-narrowed segments (bronchodilation) (bronchial walls) | also measured
1 | C[C@@H]1C[C@H]2[C@@H]3CCC4=CC(=O)C=C[C@]4(C)[C@@]3(F)[C@@H](O)C[C@]2(C)[C@@]1(O)C(=O)CO [Dexamethasone] | no abnormal findings | did not induce any gross or histopathological changes | minimal multifocal inflammatory cell infiltrates | – | Histopathological examination of the lung tissues (porcine bronchi; porcine, injections in lung lobes at low, medium and high doses, sacrificed on day 30): normal lung architecture
2 | CN(Cc1cnc2nc(N)nc(N)c2n1)c1ccc(C(=O)N[C@@H](CCC(=O)O)C(=O)O)cc1 [MTX, Methotrexate] | – | – | – | – | Onset of action ([1]; patients): 4-6 weeks; Patients having some response [1]: 70%
3 | CC(C)(C)NC[C@H](O)c1ccc(O)c(CO)c1 [levalbuterol] | – | – | – | immediate bronchodilation | –
4 | CC(=O)OC(C)C[N+](C)(C)C (centres unmarked) [methacholine] | – | – | – | – | Duration of bronchoconstriction (bronchial walls; [2]): more than 30 minutes; Effect of injection on the airway (bronchoconstriction) (bronchial walls; [2]): immediate bronchoconstriction
5 | C[N+]1(C)[C@@H]2C[C@@H](OC(=O)C(O)(c3cccs3)c3cccs3)C[C@H]1[C@@H]1O[C@@H]12 [tiotropium bromide] | – | – | – | immediate bronchodilation | –
6 | α-1-antitrypsin [A1AT] | no abnormal findings | did not induce any gross or histopathological changes | minimal multifocal inflammatory cell infiltrates | – | Histopathological examination of the lung tissues (porcine bronchi; pig, in vivo): normal lung architecture
